Assay results reported in patent US8809347B2, “Bicyclic aryl and bicyclic heteroaryl substituted triazoles useful as AXL inhibitors” (Rigel Pharmaceuticals, Inc., priority 2006, dated 2014).

Biological target: T1, Axl (Homo sapiens, UniProt P30530)
T1 construct: Cells: Hela cells; endogenous in cells; host or cells: HeLa cells
T1 sequence (P30530 26-894): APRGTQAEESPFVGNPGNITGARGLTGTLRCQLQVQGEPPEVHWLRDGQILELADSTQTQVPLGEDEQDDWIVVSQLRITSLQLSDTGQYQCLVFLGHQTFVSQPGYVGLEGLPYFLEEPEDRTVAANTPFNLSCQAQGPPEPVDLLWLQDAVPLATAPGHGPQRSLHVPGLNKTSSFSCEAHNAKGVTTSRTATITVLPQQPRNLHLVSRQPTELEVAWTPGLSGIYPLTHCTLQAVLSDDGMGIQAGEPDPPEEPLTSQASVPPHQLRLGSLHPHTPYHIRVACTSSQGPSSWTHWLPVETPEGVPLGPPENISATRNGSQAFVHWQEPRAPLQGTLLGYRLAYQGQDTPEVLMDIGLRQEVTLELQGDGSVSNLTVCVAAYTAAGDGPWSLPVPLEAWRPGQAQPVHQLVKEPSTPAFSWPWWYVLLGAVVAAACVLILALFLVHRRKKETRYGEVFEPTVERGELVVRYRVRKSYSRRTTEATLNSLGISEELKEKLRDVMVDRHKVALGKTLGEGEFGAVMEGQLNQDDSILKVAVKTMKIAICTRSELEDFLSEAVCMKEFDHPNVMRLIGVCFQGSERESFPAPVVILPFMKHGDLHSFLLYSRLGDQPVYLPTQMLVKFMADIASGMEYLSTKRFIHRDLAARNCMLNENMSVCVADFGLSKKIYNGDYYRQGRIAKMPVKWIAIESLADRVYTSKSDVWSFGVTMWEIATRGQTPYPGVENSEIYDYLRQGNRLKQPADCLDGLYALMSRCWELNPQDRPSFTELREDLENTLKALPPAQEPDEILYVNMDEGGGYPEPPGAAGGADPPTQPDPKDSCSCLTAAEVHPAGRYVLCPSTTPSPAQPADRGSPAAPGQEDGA
Experiment: Phospho-Akt in-cell Western assay (inhibition of Axl activity)
Type: cell-based
Details: Hela cells; 1 hr pre-treatment; stimulation by Axl-antibody cross-linking; phospho-Akt chemiluminescence normalized to relative cell number
Protocol: The compounds of the invention were tested in the following assay for their ability to inhibit Axl activity.
Phospho-Akt in-Cell Western Assay
• Cell culture plate: 96 well assay plate (Corning 3610), white, clear bottom, tissue-culture treated. • Cells: Hela cells. • Starvation medium: For Axl stimulation: 0.5% FCS (fetal calf serum) in DMEM, plus Axl/Fc (extracellular domain of AXL fused to immunoglobulin Fc region) (R&D, 154-AL) 500 ng/mL. • For EGF (epidermal growth factor) stimulation: 0.5% FCS in DMEM (Dulbecco's modified Eagles medium). • Poly-L-Lysine 0.01% solution (the working solution): […], dilute In PBS (phosphate buffered saline). • Axl antibody cross-linking: • 1st: Mouse anti-Axl (R&D, MAB154). • 2nd: Biotin-SP-conjugated AffiniPure goat anti-mouse IgG (H+ L) (Jackson ImmunoResearch #115-065-003). • Fixing buffer: 4% formaldehyde in PBS. • Wash buffer: 0.1% TritonX-100 in PBS. • Quenching buffer: 3% H2O2, 0.1% Azide in wash buffer, Azide and hydrogen peroxide (H2O2) are added fresh. • Blocking buffer: 5% BSA in TBST (tris buffered saline plus 0.1% Tween 20). • Primary antibody: Rabbit anti-human Phospho-Akt antibody (Cell Signaling 9271): 1×250 diluted in blocking buffer. • Secondary antibody: HRP (horse radish peroxidase)-conjugated Goat anti-Rabbit secondary, stock solution: Jackson ImmunoResearch (Goat anti-Rabbit HRP, #111-035-144) 1:1 diluted in glycerol, store at −20° C. The working solution: 1×2000 dilution of stock in blocking buffer. • Chemiluminescent working solution (Pierce, 37030): SuperSignal ELISA (enzyme linked immunosorbant assay) Pico Chemiluminescent substrate. • Crystal Violet solution: Stock: 2.5% Crystal violet in methanol, filtered and kept at ambient temperature. The working solution: dilute the stock 1:20 with PBS immediately before use. • 10% SDS: working solution: 5% SDS (sodium dodecylsulfate), diluted in PBS Methods: Day 1:
A 96 well TC (tissue culture treated) plate was coated with 10 μg/mL poly-L-Lysine at 37° C. for 30 min, washed twice with PBS, and air-dried for 5 minutes before cells were added. Hela cells were seeded at 10,000 cells/well and the cells were starved in 100 μL starvation medium containing Axl/Fc for 24 hrs.
The cells were pre-treated with test compounds by adding 100 μL of 2× test compound to the starvation medium on the cells. The cells were incubated at 37° C. for 1 hr before stimulation.
The cells were stimulated by Axl-antibody cross-linking as follows: A 5× 1st/2nd Axl antibody mixture was made (37.5 μg/mL 1st/100 μg/mL 2nd) in starvation medium and nutated at 4° C. with thorough mixing for 1-2 hours for clustering. The resulting mix was warmed to 37° C. 50 μL of 5× Axl 1st/2nd of antibody cluster was added to the cells and the cells were incubated at 37° C. for 5 min.
After 5 minutes stimulation, the plate was flicked to remove medium and the plate was tapped onto paper towels. Formaldehyde (4.0% in PBS, 100 μL) was added to fix the cells and the cells were incubated at ambient temperature for 20 min without shaking.
The cells were washed with a plate washer buffer to remove the formaldehyde solution. The plate was flicked to removed excess wash buffer and tapped onto paper towels. Quenching buffer (100 μL) was added to each well and the cells were incubated at ambient temperature for 20 minutes without shaking.
The cells were washed with a plate washer buffer to remove the quenching buffer. Blocking buffer (100 μL) was added and the cells were incubated at ambient temperature for at least an hour with gentle shaking.
The cells were washed with a plate washer buffer and diluted primary antibody (50 μL) was added to each well (blocking buffer was added to the negative control wells instead). The plates were incubated overnight at 4° C. with gentle shaking.
The wash buffer was removed, diluted secondary antibody (100 μL) was added, and the cells were incubated at ambient temperature for 1 hour with gentle shaking. […]

IC50 [nM] | SMILES
< 1000 | Nc1nc(Nc2ccc(N3CCN(C4CC5CCC4C5)CC3)cc2)nn1-c1ncc2c(n1)CCCCCC2 (stereo not drawn) [Compound 3, N^3-(4-(4-(bicyclo[2.2.1]heptan-2-yl)piperazin-1-yl)phenyl)-1-(5,6,7,8,9,10-hexahydrocycloocta[d]pyrimidin-2-yl)-1H-1,2,4-triazole-3,5-diamine]
1000 to 10000 | Nc1nc(Nc2ccc3c(c2)CCCN(C2CCCC2)CC3)nn1-c1nc2ccccc2s1 [Compound 32, 1-(benzo[d]thiazol-2-yl)-N^3-(3-cyclopentyl-1,2,3,4,5,6-hexahydrobenzo[d]azocin-8-yl)-1H-1,2,4-triazole-3,5-diamine]
< 1000 | Cc1csc2c(-n3nc(Nc4ccc5c(c4)CCCN(C4CCCC4)CC5)nc3N)ncnc12 [Compound 41, N^3-(3-cyclopentyl-1,2,3,4,5,6-hexahydrobenzo[d]azocin-8-yl)-1-(7-methylthieno[3,2-d]pyrimidin-4-yl)-1H-1,2,4-triazole-3,5-diamine]
< 1000 | CC(C)(COc1ccc(Nc2nc(N)n(-c3ncc4c(n3)CCCCCC4)n2)cc1)N1CCCC1 [Compound 15, 1-(5,6,7,8,9,10-hexahydrocycloocta[d]pyrimidin-2-yl)-N^3-(4-(2-methyl-2-(pyrrolidin-1-yl)propoxy)phenyl)-1H-1,2,4-triazole-3,5-diamine]
< 1000 | Cc1csc2c(-n3nc(Nc4cnc5c(c4)CCC(N4CCCC4)CCC5)nc3N)ncnc12 (stereo not drawn) [Compound 40, 1-(7-methylthieno[3,2-d]pyrimidin-4-yl)-N^3-(7-(pyrrolidin-1-yl)-5,6,7,8,9,10-hexahydrocycloocta[b]pyridin-3-yl)-1H-1,2,4-triazole-3,5-diamine]
< 1000 | Cc1csc2c(-n3nc(Nc4cnc5c(c4)CCC(NC4CCCCC4)CCC5)nc3N)ncnc12 (stereo not drawn) [Compound 43, N^3-(7-(cyclohexylamino)-5,6,7,8,9,10-hexahydrocycloocta[b]pyridin-3-yl)-1-(7-methylthieno[3,2-d]pyrimidin-4-yl)-1H-1,2,4-triazole-3,5-diamine]
1000 to 10000 | CS(=O)(=O)N1CCN(c2ccc(Nc3nc(N)n(-c4ncc5c(n4)CCCCCC5)n3)cc2F)CC1 [Compound 19, N^3-(3-fluoro-4-(4-(methylsulfonyl)piperazin-1-yl)phenyl)-1-(5,6,7,8,9,10-hexahydrocycloocta[d]pyrimidin-2-yl)-1H-1,2,4-triazole-3,5-diamine]
< 1000 | CN1CCN(c2ccc(Nc3nc(N)n(-c4ncc5c(n4)CCCCCC5)n3)cc2)CC1 [Compound 2, 1-(5,6,7,8,9,10-hexahydrocycloocta[d]pyrimidin-2-yl)-N^3-(4-(4-methylpiperazin-1-yl)phenyl)-1H-1,2,4-triazole-3,5-diamine]
< 1000 | CN1CCCN(c2ccc(Nc3nc(N)n(-c4ncc5c(n4)CCCCCC5)n3)cc2F)CC1 [Compound 4, N^3-(3-fluoro-4-(4-methyl-1,4-diazepan-1-yl)phenyl)-1-(5,6,7,8,9,10-hexahydrocycloocta[d]pyrimidin-2-yl)-1H-1,2,4-triazole-3,5-diamine]
< 1000 | Cc1csc2c(-n3nc(Nc4ccc5c(c4)CC(N4CCCC4)CCCC5)nc3N)nc(Cl)nc12 (stereo not drawn) [Compound 29, 1-(2-chloro-7-methylthieno[3,2-d]pyrimidin-4-yl)-N^3-(9-(pyrrolidin-1-yl)-5,6,7,8,9,10-hexahydrobenzo[8]annulen-2-yl)-1H-1,2,4-triazole-3,5-diamine]
< 1000 | Cc1csc2c(-n3nc(Nc4ccc5c(c4)CCCN(C4CC6CCC4C6)CC5)nc3N)nc(Cl)nc12 (stereo not drawn) [Compound 38, N^3-(3-(bicyclo[2.2.1]heptan-2-yl)-1,2,3,4,5,6-hexahydrobenzo[d]azocin-8-yl)-1-(2-chloro-7-methylthieno[3,2-d]pyrimidin-4-yl)-1H-1,2,4-triazole-3,5-diamine]
1000 to 10000 | CN(C)[C@H]1CCN(c2ccc(Nc3nc(N)n(-c4ncc5c(n4)CCCCCC5)n3)cc2)C1 [Compound 7, (S)—N^3-(4-(3-(dimethylamino)pyrrolidin-1-yl)phenyl)-1-(5,6,7,8,9,10-hexahydrocycloocta[d]pyrimidin-2-yl)-1H-1,2,4-triazole-3,5-diamine]
< 1000 | Nc1nc(Nc2ccc(N3CCC(CN4CCCC4)CC3)nc2)nn1-c1ncnc2c1CCCCCC2 [Compound 52, N^3-(6-(4-((pyrrolidin-1-yl)methyl)piperidin-1-yl)pyridin-3-yl)-1-(5,6,7,8,9,10-hexahydrocycloocta[d]pyrimidin-4-yl)-1H-1,2,4-triazole-3,5-diamine]
< 1000 | Nc1nc(Nc2ccc(N3CCN(C4CC5CCC4C5)CC3)cc2)nn1-c1ncnc2c1CCCCCC2 (stereo not drawn) [Compound 24, N^3-(4-(4-(bicyclo[2.2.1]heptan-2-yl)piperazin-1-yl)phenyl)-1-(5,6,7,8,9,10-hexahydrocycloocta[d]pyrimidin-4-yl)-1H-1,2,4-triazole-3,5-diamine]
< 1000 | Nc1nc(Nc2ccc(N3CCN(C4CCCCC4)CC3)c(Cl)c2)nn1-c1ncc2c(n1)CCCCCC2 [Compound 8, N^3-(3-chloro-4-(4-cyclohexylpiperazin-1-yl)phenyl)-1-(5,6,7,8,9,10-hexahydrocycloocta[d]pyrimidin-2-yl)-1H-1,2,4-triazole-3,5-diamine]
1000 to 10000 | Nc1nc(Nc2ccc(N3CCC(N4CCOCC4)CC3)c(F)c2)nn1-c1ncc2c(n1)CCCCCC2 [Compound 25, N^3-(3-fluoro-4-(4-morpholinopiperidin-1-yl)phenyl)-1-(5,6,7,8,9,10-hexahydrocycloocta[d]pyrimidin-2-yl)-1H-1,2,4-triazole-3,5-diamine]
< 1000 | Nc1nc(Nc2ccc(OCCN3CCCC3)cc2)nn1-c1ncc2c(n1)CCCCCC2 [Compound 1, 1-(5,6,7,8,9,10-hexahydrocycloocta[d]pyrimidin-2-yl)-N^3-(4-(2-(pyrrolidin-1-yl)ethoxy)phenyl)-1H-1,2,4-triazole-3,5-diamine]
< 1000 | Nc1nc(Nc2ccc(N3CCC(N4CCCCCC4)CC3)nc2)nn1-c1ncnc2c1CCCCCC2 [Compound 51, N^3-(6-(4-(azepan-1-yl)piperidin-1-yl)pyridin-3-yl)-1-(5,6,7,8,9,10-hexahydrocycloocta[d]pyrimidin-4-yl)-1H-1,2,4-triazole-3,5-diamine]
